Reference: patent US11591368B2, “Peptides for cancer treatment” (CHUNG SHAN MEDICAL UNIVERSITY, priority 2017, dated 2023)
Where a SMILES comes first, the peptide text is derived from it. Where no end group is shown, it is not given here. The star is where a group is joined. Fmoc = O=C(OCC1c2ccccc2-c2ccccc21)*

Experiments:
[1] = system: H460; assay: Cell proliferation assay in H460 lung cancer cell line; format: cell-based; settings: H460, FIG. 4
[2] = system: A549; assay: Cell proliferation assay in A549 lung cancer cell line; format: cell-based; settings: A549, FIG. 4
[3] = system: H1355; assay: Cell proliferation assay in H1355 lung cancer cell line; format: cell-based; settings: H1355, FIG. 4
[4] = system: H1299; assay: Cell proliferation assay in H1299 lung cancer cell line; format: cell-based; settings: H1299, FIG. 4
[5] = system: CL1-5 cells; assay: Cell invasion assay (Matrigel-coated modified Boyden chamber) in CL1-5 cells; format: cell-based; settings: for Invasion inhibition: LT fragments at 0, 12.5, 25 and 50 μM, FIG. 12
Protocol: Fmoc-LT1-3 peptides were used in cell invasion assay. A 24-well modified Boyden chamber with a polycarbonate membrane (8-μm pore size) was used for in vitro invasion assays. […] CL1-5 cells (3×10^4 cells/well) in RPMI medium with various concentrations of peptide were seeded onto the upper chamber. […] After 24 h of incubation, the cells were fixed with ice-cold 100% methanol and stained with 10% Giemsa. Following staining, cells on the upper side of the membrane were removed with a cotton swab. The number of invaded cells attached to the lower surface of the polycarbonate membranes was counted under a light microscope. All experiments were performed in triplicate.

[6] = system: CL1-5 cells; assay: Cell proliferation assay in CL1-5 cells; format: cell-based; settings: for growth inhibition (cell proliferation): Fmoc modified peptides, 24 h, FIG. 1 and FIG. 2; for Growth inhibition: LT fragments at 0, 12.5, 25 and 50 μM
Protocol: The peptides described below were Fmoc modified and dissolved in DMSO and […] and then used in cell proliferation assay. CL1-5 cells were cultured to 80% confluence in RPMI medium containing 10% FBS. After detachment, 3×10^4[…]cells were seeded onto 12-well plates. After 16 h of incubation, cells were either harvested before treatment (designated as 0 h), or treated with LT peptides for 24 h (designated 24 h), and viable cells were counted. Relative fold-change in cell number or percent increase in cell growth (%) was calculated by following formula: (Cell number24h−Cell number0h)/(Cell number of control24h−Cell number of control0h).

[7] = system: CL1-5 lung cancer cells; assay: Tumor growth in xenograft animal model; format: in vivo
Protocol: Six-week old immune deficient BALB/CAnN.Cg-Foxn1nu/CrlBltw mice were housed in individual ventilated chambers (IVC). A total of 2×10^6 CL1-5 lung cancer cells in 100 μL PBS were mixed with 100 μL of 10× Matrigel. The lung cancer cells/Matrigel mix was injected subcutaneously to the lower back of the mice. Three days later, the mice were treated with 0, 10, 20, or 30 nmol of Fmoc-LT-1-3 subcutaneously everyday. The Fmoc-LT-1-3 peptide was dissolved in 100% DMSO and diluted to the desired concentration in PBS from day 3 to day 17. On the 18th day, we observed that 80% of control group animal, 40% of 10 nmol group animal, 20% of 20 nmol group animal, and 40% of 30 nmol group animal developed tumor. Percent of tumor free animal increased with increasing level of Fmoc-LT1-3 between 10 nmol and 20 nmol. […] This phenomenon may be due to lower solubility of Fmoc-LT1-3 at higher concentration. We thus decided to replace the solvent from DMSO with γ-CD, and diluted the peptide to the desired concentration for injection on the 18th day and thereafter. The volume of tumor was measured periodically. […] On the 39th day, animals were sacrificed. The tumor and organs were weighted, fixed and embedded in paraffin. Embedded tissue were sectioned and stained with hematoxylin-eosin for histologic analysis.

[8] = system: CL1-5 cells; format: in vivo, mice
Protocol: CL1-5 cells were washed, detached, and resuspended in PBS. Subsequently, a single-cell suspension containing 2×10^6 cell in 80 μL PBS was mixed with 20 μL 10× Matrigel (Corning, 5117012). The cell suspension was subcutaneously injected into the upper back of the immune deficient BALB/CAnN.Cg-Foxn1nu/CrlBltw mice. […] The tumor-bearing mice were divided into five groups (n=8/group). […] On day 13, the mice in the Fmoc-LT1-3 group were subcutaneously injected with 20 nmol Fmoc-LT1-3/γ-CD in the lower back daily. […] During the course of each treatment, the tumor volume was measured every 3 days. The mortality rates of mice were recorded, which included mice with tumor volume over 1500 mm^3. The percent of survival rate is recorded in FIG. 11 and the median survival of each group is calculated in Table 1.

Molecule	growth inhibition (cell proliferation) ([6]; CL1-5 cells)	Invasion inhibition [5]	Growth inhibition ([6]; CL1-5 cells)	also measured
Fmoc-LT-A3: Fmoc binds to N terminal of FHAVELLA (SEQ ID NO:10) (Fmoc-FHAVELLA)	best growth inhibition capability	–	–	growth inhibition in lung cancer cell lines [1]: greatly inhibited; growth inhibition in lung cancer cell lines [2]: no effect; growth inhibition in lung cancer cell lines [3]: greatly inhibited; growth inhibition in lung cancer cell lines [4]: partially inhibited; cell invasion inhibition ([5]; Fmoc peptides, 24 h, FIG. 5): inhibited cell invasion; growth inhibition in lung cancer cell lines ([6]; CL1-5, FIG. 4): greatly inhibited; growth inhibition, dose effect experiment ([6]; Fmoc-LT-peptides, CL1-5 cells, FIG. 3): best growth inhibition capability
FHIVELAA (Fmoc-FHIVELAA) [LT-A7, Fmoc modified in the proliferation assay]	better inhibition activity than F-moc-LT1-3 peptide	–	–	–
ASAIYSVETINDGNFHIVELLA [LT-1]	–	inhibitory effect and Yes	inhibitory effect and Yes	–
CC[C@H](C)[C@H](NC(=O)[C@H](Cc1c[nH]cn1)NC(=O)[C@H](Cc1ccccc1)NC(=O)OCC1c2ccccc2-c2ccccc21)C(=O)N[C@H](C(=O)N[C@@H](CCC(=O)O)C(=O)N[C@@H](CC(C)C)C(=O)N[C@@H](CC(C)C)C(=O)N[C@@H](C)C(=O)O)C(C)C [Fmoc-LT1-3] (Fmoc-FHIVELLA-OH; N-terminus and C-terminus assumed)	–	–	–	histologic analysis, toxicity ([7]; hematoxylin-eosin stained tissue, day 39): did not reveal obvious toxicity; relative weight of organs ([7]; treatment groups vs control group, day 39, FIG. 9): no significant differences; effect on cisplatin-induced toxicity ([8]; combination treatment with cisplatin vs cisplatin only group): alleviate cisplatin-induced toxicity
FHIVEALA (Fmoc-FHIVEALA) [LT-A6, Fmoc modified in the proliferation assay]	better inhibition activity than F-moc-LT1-3 peptide	–	–	–
LRQAPGQNGTSFHGCIRNLYINSE [LT-5]	–	inhibitory effect on cell invasion only and Yes	No	–
O=S(=O)(NCCNC/C=C/c1ccc(Br)cc1)c1cccc2cnccc12 [H89, reference compound]	–	–	–	LT-peptide-mediated growth inhibition together with PKA inhibitor (H89) ([6]; CL1-5 cells, FIG. 24): enhances growth inhibition activity
AHIVELLA (Fmoc-AHIVELLA) [LT-A1, Fmoc modified in the proliferation assay]	better inhibition activity than F-moc-LT1-3 peptide	–	–	–
FAIVELLA (Fmoc-FAIVELLA) [LT-A2, Fmoc modified in the proliferation assay]	better inhibition activity than F-moc-LT1-3 peptide	–	–	–
KIITNLSKQSTLNFDSPLYVGG [LT-3]	–	inhibitory effect on cell invasion only and Yes	No	–
GGMPGKSNVASLRQAPGQNGTSF [LT-4]	–	inhibitory effect on cell invasion only and Yes	No	–
N.N.[Cl][Pt][Cl] [cisplatin, reference compound]	–	–	–	Median survival ([8]; single agent: cisplatin 4 mg/kg IP weekly 4 times, or 20 nmol Fmoc-LT1-3/γ-CD s.c. daily): 37.5 days
FHIAELLA (Fmoc-FHIAELLA) [LT-A4, Fmoc modified in the proliferation assay]	better inhibition activity than F-moc-LT1-3 peptide	–	–	–
